melting point [°C] | Compound
129 to 137 | COc1cc(OCc2cccnc2)ccc1/C=C/c1cc(/C=C/c2c[nH]c3ccccc23)[nH]n1 [Example 42, 3-[(1E)-2-(1H-indol-3-yl)ethenyl]-5-[(1E)-2-[2-methoxy-4-(3-pyridylmethoxy)phenyl]ethenyl]-1H-pyrazole]
133 to 141 | COc1cc(OCc2ccncc2)ccc1/C=C/c1cc(/C=C/c2ccc3[nH]ccc3c2)[nH]n1 [Example 45, 3-[(1E)-2-(1H-indol-5-yl)ethenyl]-5-[(1E)-2-[2-methoxy-4-(4-pyridylmethoxy)phenyl]ethenyl]-1H-pyrazole]
103 to 118 | COc1cc(OCc2ccncc2)ccc1/C=C/c1cc(/C=C/c2ccc3cc[nH]c3c2)[nH]n1 [Example 47, 3-[(1E)-2-(1H-indol-6-yl)ethenyl]-5-[(1E)-2-[2-methoxy-4-(4-pyridylmethoxy)phenyl]ethenyl]-1H-pyrazole]
207 to 215 | COc1cc(OCc2ccncc2)ccc1/C=C/c1cc(/C=C/c2cccc3[nH]ccc23)[nH]n1 [Example 49, 3-[(1E)-2-(1H-indol-4-yl)ethenyl]-5-[(1E)-2-[2-methoxy-4-(4-pyridylmethoxy)phenyl]ethenyl]-1H-pyrazole]
122 to 129 | COc1cc(OCc2cccnc2)ccc1/C=C/c1cc(/C=C/c2cccc3cc[nH]c23)[nH]n1 [Example 50, 3-[(1E)-2-(1H-indol-7-yl)ethenyl]-5-[(1E)-2-[2-methoxy-4-(3-pyridylmethoxy)phenyl]ethenyl]-1H-pyrazole]
201 to 206 | COc1cc(OCc2ccncc2)ccc1/C=C/c1cc(/C=C/c2cccc3cc[nH]c23)[nH]n1 [Example 51, 3-[(1E)-2-(1H-indol-7-yl)ethenyl]-5-[(1E)-2-[2-methoxy-4-(4-pyridylmethoxy)phenyl]ethenyl]-1H-pyrazole]
121 to 133 | COc1ccc(/C=C/c2cc(/C=C/c3ccc4cc[nH]c4c3)[nH]n2)c(OC)c1 [Example 54, 3-[(1E)-2-(2,4-dimethoxyphenyl)ethenyl]-5-[(1E)-2-(1H-indol-6-yl)ethenyl]-1H-pyrazole]
> 300 | CC(=O)Nc1ccc(/C=C/c2cc(/C=C/c3ccc4cc[nH]c4c3)[nH]n2)cc1 [Example 55, 3-[(1E)-2-[4-(acetylamino)phenyl]ethenyl]-5-[(1E)-2-(1H-indol-6-yl)ethenyl]-1H-pyrazole]
273 to 276 | C(=C\c1cc(/C=C/c2ccc3cc[nH]c3c2)[nH]n1)/c1ccc(-c2ccccc2)cc1 [Example 61, 3-[(1E)-2-(1H-indol-6-yl)ethenyl]-5-[(1E)-2-(4-phenylphenyl)ethenyl]-1H-pyrazole]
103 to 109 | COc1ccc(Br)c(/C=C/c2cc(/C=C/c3ccc4cc[nH]c4c3)[nH]n2)c1 [Example 67, 3-[(1E)-2-(2-bromo-5-methoxyphenyl)ethenyl]-5-[(1E)-2-(1H-indol-6-yl)ethenyl]-1H-pyrazole]

More lines, now with the values behind:

Compound | melting point [°C]
COc1cc(OCc2ccccn2)ccc1/C=C/c1cc(/C=C/c2cccc3cc[nH]c23)[nH]n1 [Example 41, 3-[(1E)-2-(1H-indol-7-yl)ethenyl]-5-[(1E)-2-[2-methoxy-4-(2-pyridylmethoxy)phenyl]ethenyl]-1H-pyrazole] | 99 to 110
COc1cc(OCc2ccncc2)ccc1/C=C/c1cc(/C=C/c2c[nH]c3ccccc23)[nH]n1 [Example 43, 3-[(1E)-2-(1H-indol-3-yl)ethenyl]-5-[(1E)-2-[2-methoxy-4-(4-pyridylmethoxy)phenyl]ethenyl]-1H-pyrazole] | 128 to 139
COc1cc(OCc2cccnc2)ccc1/C=C/c1cc(/C=C/c2ccc3[nH]ccc3c2)[nH]n1 [Example 44, 3-[(1E)-2-(1H-indol-5-yl)ethenyl]-5-[(1E)-2-[2-methoxy-4-(3-pyridylmethoxy)phenyl]ethenyl]-1H-pyrazole] | 127 to 135
COc1cc(OCc2cccnc2)ccc1/C=C/c1cc(/C=C/c2ccc3cc[nH]c3c2)[nH]n1 [Example 46, 3-[(1E)-2-(1H-indol-6-yl)ethenyl]-5-[(1E)-2-[2-methoxy-4-(3-pyridylmethoxy)phenyl]ethenyl]-1H-pyrazole] | 90 to 95
COc1cc(OCc2cccnc2)ccc1/C=C/c1cc(/C=C/c2cccc3[nH]ccc23)[nH]n1 [Example 48, 3-[(1E)-2-(1H-indol-4-yl)ethenyl]-5-[(1E)-2-[2-methoxy-4-(3-pyridylmethoxy)phenyl]ethenyl]-1H-pyrazole] | 109 to 114
COc1cc(OCc2cccnc2)ccc1/C=C/c1cc(/C=C/c2cc3ccccc3[nH]2)[nH]n1 [Example 52, 3-[(1E)-2-(1H-indol-2-yl)ethenyl]-5-[(1E)-2-[2-methoxy-4-(3-pyridylmethoxy)phenyl]ethenyl]-1H-pyrazole] | 126 to 138
COc1cc(OCc2ccncc2)ccc1/C=C/c1cc(/C=C/c2cc3ccccc3[nH]2)[nH]n1 [Example 53, 3-[(1E)-2-(1H-indol-2-yl)ethenyl]-5-[(1E)-2-[2-methoxy-4-(4-pyridylmethoxy)phenyl]ethenyl]-1H-pyrazole] | 124 to 134
C(=C\c1cc(/C=C/c2ccc3cc[nH]c3c2)[nH]n1)/c1ccc(Oc2ccccc2)cc1 [Example 56, 3-[(1E)-2-(1H-indol-6-yl)ethenyl]-5-[(1E)-2-(4-phenoxyphenyl)ethenyl]-1H-pyrazole] | 175 to 182
CS(=O)(=O)c1ccc(/C=C/c2cc(/C=C/c3ccc4cc[nH]c4c3)[nH]n2)cc1 [Example 57, 3-[(1E)-2-(1H-indol-6-yl)ethenyl]-5-[(1E)-2-[4-(methanesulfonyl)phenyl]ethenyl]-1H-pyrazole] | 260 to 268
C(=C\c1cc(/C=C/c2ccccc2-c2cccnc2)n[nH]1)/c1ccc2cc[nH]c2c1 [Example 59, 3-[(1E)-2-(1H-indol-6-yl)ethenyl]-5-[(1E)-2-[2-(3-pyridyl)phenyl]ethenyl]-1H-pyrazole] | 248 to 255
COc1cc(Br)c(/C=C/c2cc(/C=C/c3ccc4cc[nH]c4c3)[nH]n2)cc1O [Example 60, 3-[(1E)-2-(2-bromo-5-hydroxy-4-methoxyphenyl)ethenyl]-5-[(1E)-2-(1H-indol-6-yl)ethenyl]-1H-pyrazole] | 137 to 142
CN1CCN(c2ccc(/C=C/c3cc(/C=C/c4ccc5cc[nH]c5c4)[nH]n3)c(Br)c2)CC1 [Example 62, 3-[(1E)-2-[2-bromo-4-(4-methylpiperazin-1-yl)phenyl]ethenyl]-5-[(1E)-2-(1H-indol-6-yl)ethenyl]-1H-pyrazole] | 120 to 124
COc1cc(OC(c2ccccc2)c2ccccc2)ccc1/C=C/c1cc(/C=C/c2ccc3cc[nH]c3c2)[nH]n1 [Example 64, 3-[(1E)-2-[4-(diphenylmethoxy)-2-methoxyphenyl]ethenyl]-5-[(1E)-2-(1H-indol-6-yl)ethenyl]-1H-pyrazole] | 114 to 119
COc1cc(OC(C)C)ccc1/C=C/c1cc(/C=C/c2ccc3cc[nH]c3c2)[nH]n1 [Example 65, 3-[(1E)-2-(1H-indol-6-yl)ethenyl]-5-[(1E)-2-(4-isopropoxy-2-methoxyphenyl)ethenyl]-1H-pyrazole] | 107 to 113
COCCOc1ccc(/C=C/c2cc(/C=C/c3ccc4cc[nH]c4c3)[nH]n2)c(OC)c1 [Example 66, 3-[(1E)-2-(1H-indol-6-yl)ethenyl]-5-[(1E)-2-[2-methoxy-4-(2-methoxyethoxy)phenyl]ethenyl]-1H-pyrazole] | 90 to 96

Source: patent US9399635B2, “Pyrazole derivative” (GREEN TECH CO., LTD., priority 2011, dated 2016)
